Results taken from article PMC4398322, “Snake neurotoxin α-bungarotoxin is an antagonist at native GABAA receptors” (Neuropharmacology, 2015).
pEC50: −log10 of the molar value. Several values for one entry are separate records, joined by “and”; a condition that tells them apart may be missing. Equal values may be shown once. Read-outs that look alike come from different tables or passages of the source.

Key:
α2β2γ2 GABAARs = target: T1, α2β2γ2 GABAARs (Mus musculus, UniProt P22723+P26048+P63137); type: binding, murine
T1 construct: expressed in transfected cells; host or cells: HEK-293
Procedure: (§1) Murine GABAAR α1-6, β1-3, γ2 and δ cDNAs subcloned into pRK-5 and pEGFP-C1 have been described previously ([Mortensen et al., 2011]).
(§2) Cells were transfected with equimolar ratios of cDNAs encoding for α1–6, β1–3 and δ or γ2 GABAA receptor subunits along with eGFP using a calcium phosphate method ([Mortensen et al., 2011]) 15–45 min after plating.
Live transfected HEK-293 cells were studied 48 h after transfection and washed with Krebs to remove cell culture media and incubated in 400 nM α-Bgtx coupled with Alexa Fluor 555 (α-Bgtx-AF555; Life Technologies) for 10 min at room temperature (RT). Cells were washed and fixed in 4% paraformaldehyde (PFA; Sigma) for 10 min at RT. The cells were imaged immediately post-fixation in saline using a Zeiss LSM 510 Meta confocal microscope and an Achroplan x40 water DIC objective (NA 0.8) as described previously ([Hannan et al., 2012]). This involved choosing the optimal z-section and acquiring images as a mean of 4 scans in 16-bits using a 543 nm Helium–Neon laser and a 560 nm long-pass filter for α-Bgtx-AF555 and a 488 Argon laser with a 505–530 nm band-pass filter for eGFP.
Confocal images were analysed using ImageJ (version 1.410) as described previously ([Hannan et al., 2013]). For each cell the surface membrane was identified by drawing a region-of-interest (ROI) in the eGFP channel and this was transferred to the α-Bgtx-AF555 channel and the mean membrane fluorescence values were determined. Mean background fluorescence was determined from a region devoid of cells. This was subtracted from the mean membrane fluorescence providing a mean corrected fluorescence intensity value. These values, for different combinations of receptors and drugs, were graphically plotted using Origin.
To identify the location of the α-Bgtx binding site on GABAARs, we pre-incubated HEK-293 cells expressing α2β2γ2 with a range of ligands that act at GABAARs and nAChRs, for 5 min at RT followed by co-incubation with α-Bgtx-AF555 for 10 min at RT (Fig. 4A). These ligands were selected to ‘protect by binding occupancy’ known binding site domains on GABAARs and nAChRs.
A, Schematic of the experimental protocol. 48 hrs after transfection, HEK-293 cells expressing eGFP and α2β2γ2 were incubated in drug for 5 min at RT followed by the addition of drug +400 nM α-Bgtx-AF555 for 10 min at RT to label cell surface receptors. The cells were washed to remove the excess α-Bgtx-AF555, fixed and imaged. B, Images of cells expressing α2β2γ2, stained with α-Bgtx-AF555 in the presence of 1 mM d-Tc, 1 mM nicotine, or 1 mM carbachol. C, Mean cell surface fluorescence of α-Bgtx-AF555 bound to surface GABAARs in the presence of d-Tc, nicotine or carbachol. […] Scale bars 5 μm.

α5β2γ2 GABAAR = target: T2, α5β2γ2 GABAAR (Mus musculus, UniProt P22723+P63137+Q8BHJ7); test: Whole-cell GABA-activated currents in transfected HEK-293 cells (patch clamp); type: cell-based, murine
T2 construct: expressed in transfected cells; host or cells: HEK-293
Procedure: as §1, §2
(§3) Patch electrodes had resistances of 4–5 MΩ and were filled with an internal solution containing (mM): 120 CsCl 1 MgCl2, 11 EGTA, 30 KOH, 10 HEPES, 1 CaCl2, and 2 K2ATP; pH – 7.2. HEK-293 cells were superfused with a saline solution containing (mM): 140 NaCl, 4.7 KCl, 1.2 MgCl2, 2.52 CaCl2, 11 Glucose, and 5 HEPES; pH 7.4. The saline for recording from primary neurons was supplemented with 2 mM kynurenic acid and pH adjusted to 7.4 to block all spontaneous excitatory post-synaptic currents (EPSCs). Membrane currents were filtered at 5 kHz (−3 dB, 6th pole Bessel, 36 dB/octave). HEK-293 cells were studied 48 h after transfection by voltage clamping cells at a holding potential of −20 to −40 mV with optimised series resistance (Rs, <10 MΩ) and whole-cell membrane capacitance compensation. Neuronal membrane currents were similarly recorded at a holding potential of −60 mV.
(§4) Spontaneous inhibitory postsynaptic currents (IPSCs) were recorded from dentate gyrus granule cells (DGGCs) with the same internal solution as above. Cells were voltage clamped at −60 mV and IPSCs were recorded using 5 kHz filtering with optimal series resistance and whole-cell capacitance compensation.

[1] = test system: dentate gyrus granule cells (DGGCs); test: Spontaneous IPSCs in dentate gyrus granule cells of acute hippocampal slices; type: cell-based, mouse
Procedure: (§5) Acute transverse brain slices were prepared from adult (P115–125) male C57BL/6J mice in accordance with the UK Animals (Scientific Procedures) Act 1986.
(§6) The brain was rapidly removed after terminal anaesthesia with isoflurane and immersed in ice-cold slicing solution composed of (mM): 85 NaCl, 2.5 KCl, 1 CaCl2, 4 MgCl2, 1.25 NaH2PO4, 26 NaHCO3, 75 sucrose, and 25 glucose, 2 kynurenic acid, pH – 7.4. The slicing solution was continuously bubbled with 95% […] and 5% CO2. Transverse 250 μm slices containing the ventral hippocampus were cut with a Leica VT1200S vibroslicer. The slicing solution was exchanged at 37 °C for 60 min with a recording solution containing (mM): 125 NaCl, 2.5 KCl, 2 CaCl2, 1 MgCl2, 1.25 NaH2PO4, 26 NaHCO3, 2 kynurenic acid, and 25 glucose, pH 7.4.
as §4
IPSCs were detected and analysed using WinEDR and WinWCP (John Dempster, University of Strathclyde, UK). IPSC frequency was calculated using events detected over 60 s epochs of recording. […] This function provided the Gaussian mean amplitude current (μ) and standard deviation (σ). All the distributions were fitted using this function in Origin (Ver 6). The accuracy of the fits was checked by repeating the iterative non-linear fitting procedure after substituting the best-fit parameters obtained for the control and α-Bgtx datasets with new values.

α2β2γ2 GABAAR = target: T3, α2β2γ2 GABAAR (Mus musculus, UniProt P22723+P26048+P63137); test: Whole-cell GABA-activated currents in transfected HEK-293 cells (patch clamp); type: cell-based, murine
T3 construct: expressed in transfected cells; host or cells: HEK-293
Procedure: as §1, §2, §3, §4

[2] = test system: dentate gyrus granule cells (DGGCs); test: Tonic inhibition (holding current, RMS noise) in dentate gyrus granule cells of acute hippocampal slices; type: cell-based, mouse
Procedure: as §5, §6
For tonic inhibition, to determine the average holding currents, a 60 s continuous current recording was sampled every 1 s, discarding epochs that coincided with IPSCs. Any effect of drugs on the holding current was defined by subtracting the average holding currents in control and during drug application.
The baseline noise (RMS) was calculated before and during drug treatment. This was estimated from a continuous (30 s) current recording, sampled every 100 ms. The median current was calculated every 5 s and values more than twice the standard deviation from the median (usually due to IPSCs) were eliminated. Baseline GABA-mediated current noise was defined by subtracting RMS values before and after drugs, e.g., α-Bgtx or bicuculline.

[3] = test system: native hippocampal GABAARs; type: cell-based, rat
Procedure: Dissociated hippocampal neurons were prepared from embryonic day 18 rat pups as described ([Hannan et al., 2012]). Briefly, hippocampi were dissected in ice-cold Hank's Balanced Salt Solution (HBSS) (Ca^2+/Mg^2+ free) before enzymatic dissociation in 0.1% (w/v) trypsin at 37 °C for 10 min followed by serial washes in pre-warmed HBSS to remove trypsin prior to trituration. Cells were mechanically dissociated using fire-polished glass Pasteur pipettes in plating medium composed of minimal essential medium (MEM) supplemented with 5% (v/v) fetal calf serum (FCS), 5% (v/v) horse serum, penicillin-G and streptomycin (200 units/ml and 200 μg/ml), 2 mM L-glutamine and 35 mM glucose. Cells were plated at a density of 10^6 per ml in plating medium on glass cover-slips previously coated with poly-D-lysine. The neurons were grown and maintained at 37 °C in a humidified 95% air/5% CO2 atmosphere.
After plating (30 min), the medium was removed and replaced with maintenance medium composed of Neurobasal-A supplemented with 1% (v/v) B-27, penicillin-G and streptomycin (100 units/ml and 100 μg/ml), 0.5% (v/v) Glutamax and 35 mM glucose.
as §3, §4

α4β2δ receptors = target: T4, α4β2δ receptors (Mus musculus, UniProt P22933+P63137+Q9D6F4); test: Whole-cell GABA-activated and leak currents in transfected HEK-293 cells (patch clamp); type: cell-based, murine
T4 construct: expressed in transfected cells; host or cells: HEK-293
Procedure: as §1, §2, §3, §4

α2β2 receptors = target: T5, α2β2 receptors (Mus musculus, UniProt P26048+P63137); test: Whole-cell GABA-activated currents in transfected HEK-293 cells (patch clamp); type: cell-based, murine
T5 construct: expressed in transfected cells; host or cells: HEK-293
Procedure: as §1, §2
as §3, with “Whole-cell GABA-activated currents were recorded from transfected HEK-293 cells or hippocampal neurons in culture at 12–14 DIV using patch clamp electrophysiology. Patch” for “Patch”

[4] = test system: GABAARs expressed in HEK293 cells; type: cell-based, murine
α1β2γ2 GABAAR = target: T6, α1β2γ2 GABAAR (Mus musculus, UniProt P22723+P62812+P63137); test: Whole-cell GABA-activated currents in transfected HEK-293 cells (patch clamp); type: cell-based, murine
T6 construct: expressed in transfected cells; host or cells: HEK-293
Procedure: as §1, §2, §3, §4

α4β2γ2 GABAAR = target: T7, α4β2γ2 GABAAR (Mus musculus, UniProt P22723+P63137+Q9D6F4); type: cell-based, murine
T7 construct: expressed in transfected cells; host or cells: HEK-293
Procedure: as §1, §2
as §3, with “HEK-293 cells were studied 48 h after transfection by voltage clamping cells at a holding potential of −20 to −40 mV with optimised series resistance (Rs, <10 MΩ) and whole-cell membrane capacitance compensation.” left out
as §4

[5] = 1 mM ligand, 5 min pre-incubation then + 400 nM α-Bgtx-AF555 10 min, n = 7, Fig. 4B–C

T1 sequence (P26048 29-451): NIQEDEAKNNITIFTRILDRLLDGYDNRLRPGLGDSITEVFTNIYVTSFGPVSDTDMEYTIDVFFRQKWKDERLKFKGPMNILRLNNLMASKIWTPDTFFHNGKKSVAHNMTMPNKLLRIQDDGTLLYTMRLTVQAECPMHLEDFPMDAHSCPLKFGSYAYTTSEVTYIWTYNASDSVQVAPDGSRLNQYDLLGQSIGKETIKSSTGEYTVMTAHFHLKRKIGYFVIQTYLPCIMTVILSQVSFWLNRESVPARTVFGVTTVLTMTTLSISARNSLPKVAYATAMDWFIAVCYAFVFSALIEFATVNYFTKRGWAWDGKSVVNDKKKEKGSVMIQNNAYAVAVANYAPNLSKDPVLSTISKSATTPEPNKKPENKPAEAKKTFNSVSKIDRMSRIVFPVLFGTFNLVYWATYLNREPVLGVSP
T1 sequence (P63137 25-512): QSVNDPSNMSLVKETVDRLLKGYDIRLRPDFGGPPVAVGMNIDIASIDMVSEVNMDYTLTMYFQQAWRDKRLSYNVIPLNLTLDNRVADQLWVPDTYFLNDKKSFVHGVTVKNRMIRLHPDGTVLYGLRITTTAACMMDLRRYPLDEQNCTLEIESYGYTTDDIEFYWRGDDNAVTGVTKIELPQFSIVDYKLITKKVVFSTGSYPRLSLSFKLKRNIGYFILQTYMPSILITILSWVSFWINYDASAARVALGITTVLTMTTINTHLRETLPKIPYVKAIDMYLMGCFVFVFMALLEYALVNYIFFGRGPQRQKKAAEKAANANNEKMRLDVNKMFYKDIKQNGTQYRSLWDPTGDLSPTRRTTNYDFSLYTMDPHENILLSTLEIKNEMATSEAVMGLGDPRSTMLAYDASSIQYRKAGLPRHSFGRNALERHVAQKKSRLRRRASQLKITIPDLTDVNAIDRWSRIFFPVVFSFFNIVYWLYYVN
T1 sequence (P22723 39-474): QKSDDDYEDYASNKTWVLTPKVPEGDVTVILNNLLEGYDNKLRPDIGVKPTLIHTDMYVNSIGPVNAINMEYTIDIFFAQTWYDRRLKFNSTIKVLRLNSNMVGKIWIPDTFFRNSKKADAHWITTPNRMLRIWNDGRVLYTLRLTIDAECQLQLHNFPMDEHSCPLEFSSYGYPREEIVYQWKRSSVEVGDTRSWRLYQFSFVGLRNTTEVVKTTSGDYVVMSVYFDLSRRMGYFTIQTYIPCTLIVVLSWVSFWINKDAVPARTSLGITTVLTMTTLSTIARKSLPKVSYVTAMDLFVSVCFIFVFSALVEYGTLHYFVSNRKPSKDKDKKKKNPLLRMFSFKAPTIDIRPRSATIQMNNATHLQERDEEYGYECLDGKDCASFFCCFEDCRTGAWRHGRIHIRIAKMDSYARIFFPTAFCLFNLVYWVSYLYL
T4 sequence (P22933 17-449): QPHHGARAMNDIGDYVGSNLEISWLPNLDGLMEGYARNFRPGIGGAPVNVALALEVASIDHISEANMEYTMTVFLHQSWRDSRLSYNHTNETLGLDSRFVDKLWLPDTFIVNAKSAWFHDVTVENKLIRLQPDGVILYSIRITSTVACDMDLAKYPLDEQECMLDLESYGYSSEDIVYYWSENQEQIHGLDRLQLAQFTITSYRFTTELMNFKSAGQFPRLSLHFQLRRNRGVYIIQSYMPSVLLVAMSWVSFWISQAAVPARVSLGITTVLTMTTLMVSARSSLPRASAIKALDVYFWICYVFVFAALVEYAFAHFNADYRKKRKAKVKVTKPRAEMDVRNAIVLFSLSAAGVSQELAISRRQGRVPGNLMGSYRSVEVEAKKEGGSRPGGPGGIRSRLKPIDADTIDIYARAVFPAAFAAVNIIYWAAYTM
T4 sequence (P63137 25-512): as the sequence (P63137 25-512) above
T4 sequence (Q9D6F4 36-552): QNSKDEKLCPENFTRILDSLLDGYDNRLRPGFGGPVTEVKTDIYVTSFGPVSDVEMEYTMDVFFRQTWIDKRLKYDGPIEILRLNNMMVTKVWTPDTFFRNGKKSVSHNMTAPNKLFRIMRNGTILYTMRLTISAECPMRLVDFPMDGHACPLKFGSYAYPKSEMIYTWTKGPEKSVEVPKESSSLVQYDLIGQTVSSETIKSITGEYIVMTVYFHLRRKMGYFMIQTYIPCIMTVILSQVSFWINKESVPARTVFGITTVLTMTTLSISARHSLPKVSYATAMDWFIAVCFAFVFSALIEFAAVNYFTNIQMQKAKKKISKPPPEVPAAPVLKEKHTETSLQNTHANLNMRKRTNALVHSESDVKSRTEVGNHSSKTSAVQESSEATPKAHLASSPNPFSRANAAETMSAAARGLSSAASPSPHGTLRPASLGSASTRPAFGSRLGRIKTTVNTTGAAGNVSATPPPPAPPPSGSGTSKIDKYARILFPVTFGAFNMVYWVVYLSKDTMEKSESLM
T2 sequence (P22723 39-474): as the sequence (P22723 39-474) above
T2 sequence (Q8BHJ7 32-463): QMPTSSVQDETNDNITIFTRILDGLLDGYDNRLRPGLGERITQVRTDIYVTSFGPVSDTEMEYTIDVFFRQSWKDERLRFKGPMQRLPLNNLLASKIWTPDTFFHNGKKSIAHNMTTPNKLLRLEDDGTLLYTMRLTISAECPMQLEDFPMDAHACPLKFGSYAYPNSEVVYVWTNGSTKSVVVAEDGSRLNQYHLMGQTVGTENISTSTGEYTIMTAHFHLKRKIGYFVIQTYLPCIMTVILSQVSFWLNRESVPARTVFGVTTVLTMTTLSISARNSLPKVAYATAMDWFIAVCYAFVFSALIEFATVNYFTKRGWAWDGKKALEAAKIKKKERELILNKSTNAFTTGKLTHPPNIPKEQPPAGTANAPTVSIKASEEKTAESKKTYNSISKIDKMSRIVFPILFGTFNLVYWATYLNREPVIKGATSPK
T2 sequence (P63137 25-512): as the sequence (P63137 25-512) above
T3 sequence (P63137 25-512): as above
T3 sequence (P26048 29-451): as the sequence (P26048 29-451) above
T3 sequence (P22723 39-474): as the sequence (P22723 39-474) above
T5 sequence (P26048 29-451): as the sequence (P26048 29-451) above
T5 sequence (P63137 25-512): as the sequence (P63137 25-512) above
T7 sequence (P63137 25-512): as above
T7 sequence (P22723 39-474): as the sequence (P22723 39-474) above
T7 sequence (Q9D6F4 36-552): as the sequence (Q9D6F4 36-552) above
T6 sequence (P63137 25-512): as the sequence (P63137 25-512) above
T6 sequence (P22723 39-474): as the sequence (P22723 39-474) above
T6 sequence (P62812 28-455): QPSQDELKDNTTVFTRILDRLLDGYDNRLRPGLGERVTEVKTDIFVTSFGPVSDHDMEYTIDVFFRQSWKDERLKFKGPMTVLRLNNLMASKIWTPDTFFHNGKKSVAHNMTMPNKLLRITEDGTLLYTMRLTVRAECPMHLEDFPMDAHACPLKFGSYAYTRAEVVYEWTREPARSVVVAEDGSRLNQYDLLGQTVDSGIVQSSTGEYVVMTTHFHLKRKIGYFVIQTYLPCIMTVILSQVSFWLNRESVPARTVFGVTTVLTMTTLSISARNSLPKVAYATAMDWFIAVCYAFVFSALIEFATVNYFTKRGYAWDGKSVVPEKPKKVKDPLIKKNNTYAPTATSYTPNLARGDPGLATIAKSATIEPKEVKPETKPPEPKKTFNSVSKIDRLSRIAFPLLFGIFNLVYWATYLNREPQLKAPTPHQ

Molecule: NCCCC(=O)O [GABA, γ-aminobutyric acid]
- α-Bgtx-AF555 binding in presence of ligand (α2β2γ2 GABAARs): 34.9 ± 7.1 % of control
- pEC50 (α5β2γ2 GABAAR; n = 5): 5.61

Molecule: CCN1C[C@]2(COC(=O)c3ccccc3N3C(=O)C[C@H](C)C3=O)CC[C@H](OC)[C@@]34[C@@H]5C[C@H]6[C@H](OC)[C@@H]5[C@](O)(C[C@@H]6OC)[C@@](O)([C@@H](OC)[C@H]23)[C@@H]14 [MLA, methyllaconitine]
- frequency of IPSCs ([1]; 1 nM MLA, n = 5, control 4.12 ± 0.9 Hz, P > 0.05): 3.75 ± 1.2 Hz
- median IPSC amplitude ([1]; 1 nM MLA, n = 6098 events, control −30.82 pA, P > 0.05): −30.21 pA
- effect on amplitude of GABA-activated currents (α2β2γ2 GABAAR; 1 nM MLA pre-applied 1 min before co-application with GABA): did not affect the amplitude
- DGGC holding current ([2]; 1 nM MLA): slightly reduced
- effect on currents activated by sub-maximal GABA [3]: < 1 % of control
- inhibition of GABA-activated currents ([3]; 10 μM GABA, 1 nM MLA, 1 min pre-incubation then co-applied, n = 6, P > 0.05): 0.8 ± 1.7 % inhibition

Molecule: Oc1noc2c1CCNC2 [THIP]
- response compared with maximal GABA (1 mM) (α4β2δ receptors; 300 μM THIP): superagonist ability

Molecule: [Zn+2] [Zn^2+]
- inhibition of submaximal GABA currents by Zn^2+ (α2β2 receptors): 90.8 ± 4.44%
- inhibition of submaximal GABA currents by Zn^2+ (α2β2γ2 GABAAR): 37.4 ± 8.9%

Molecule: CN1CCc2cc3c(cc2[C@H]1[C@@H]1OC(=O)c2c1ccc1c2OCO1)OCO3 [bicuculline]
- RMS noise ([2]; 50 μM bicuculline applied after α-Bgtx, n = 6, P < 0.05): 2.74 ± 0.34 pA
- average tonic current revealed (change in holding current) ([2]; 50 μM bicuculline, n = 7): 9.31 ± 2.52 pA

Molecule: C[N+](C)(C)CCOC(N)=O [carbachol]
- α-Bgtx-AF555 binding in presence of ligand (α2β2γ2 GABAARs; [5]): 100.5 ± 11.3 % of control

Molecule: COc1cc2c3cc1Oc1cc(ccc1O)C[C@@H]1c4c(cc(OC)c(O)c4Oc4ccc(cc4)C[C@@H]3N(C)CC2)CC[N+]1(C)C [d-Tc, d-tubocurarine]
- α-Bgtx-AF555 binding in presence of ligand (α2β2γ2 GABAARs; 1 mM d-Tc, n = 6, Fig. 4D–E): 7.1 ± 1.9 % of control
- α-Bgtx-AF555 binding in presence of ligand (α2β2γ2 GABAARs; [5]): 1.8 ± 1.3 % of control
- inhibition of whole-cell GABA-activated currents [3]: 92 ± 4 % inhibition

Molecule: CN1CCC[C@H]1c1cccnc1 [nicotine]
- α-Bgtx-AF555 binding in presence of ligand (α2β2γ2 GABAARs): 90.5 ± 11.4 % of control

Molecule: CCCC(C)C1(CC)C(=O)NC(=O)NC1=O (centres unmarked) [pentobarbital]
- modulation of 1 μM GABA currents ([3]; 20 μM pentobarbital): potentiated

Molecule: picrotoxin
- α-Bgtx-AF555 binding in presence of ligand (α2β2γ2 GABAARs): 106.7 ± 14.9 % of control

Molecule: α-bungarotoxin [α-Bgtx]
- reduction of saturating GABA currents [4]: 13.0 ± 5.9%
- IPSC amplitude distribution, Gaussian peak 1 mean [1]: −13.66 pA
- IPSC amplitude distribution, Gaussian peak 2 mean [1]: −19.01 pA
- frequency of IPSCs [1]: 2.17 ± 0.34 Hz
- median IPSC amplitude [1]: −23.19 pA
- inhibition of submaximal GABA currents (α1β2γ2 GABAAR): 23.8 ± 3%
- inhibition of submaximal GABA currents (α5β2γ2 GABAAR): 15.3 ± 5.9%
- RMS noise [2]: 3.39 ± 0.59 pA
- change in DGGC holding current [2]: 1.27 ± 1.21 pA
- potentiation of submaximal GABA responses (α4β2δ receptors): 46 ± 5% and 40 ± 6%
- reduction in leak current in HEK-293 cells expressing α4β2δ relative to reduction of the leak in DGGCs (α4β2δ receptors): over 40 fold
- reduction of leak current (α4β2δ receptors): 56 ± 3.7 pA and 75 ± 13 pA
- inhibition of GABA currents [3]: 33 ± 9%
- reversibility of inhibition [3]: reversible
- inhibition of submaximal GABA currents (α4β2γ2 GABAAR): 41.3 ± 4.4%
